In publication PMC7508628, “Targeting the Respiratory Syncytial Virus N^0-P Complex with Constrained α-Helical Peptides in Cells and Mice” (Antimicrobial Agents and Chemotherapy, 2020):
Where a SMILES comes first, the peptide text is derived from it. Bridges are numbered along the chain shown (N, C = ends). [ ]: non-standard residue; d: D form. R8 = C=CCCCCCC[C@@](C)(N)C(=O)O; R5 = C=CCCC[C@@](C)(N)C(=O)O; S5 = C=CCCC[C@](C)(N)C(=O)O

Tests used:
rHRSV-mCherry = conditions: read-out: EC50 (half-maximal response inhibitory concentration), inhibition of RSV infection; HEp-2 cells, MOI 0.2, peptides added after 2 h infection, mCherry fluorescence at 48 h postinfection; duplicates
[1] = Circular dichroism spectroscopy, α-helical content; assay type: physicochemical; conditions: CD, 10 mM phosphate buffer pH 7.5, 50 μM peptide, 25°C, calculated from ellipticity at 222 nm; average of three measurements
How it was run: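 Peptides at 50 μM in 10 mM phosphate, pH 7.5, scanned 180–260 nm at 25 °C in a 0.5-mm cell, three scans averaged and buffer-subtracted. Percent helicity derived from per-residue molar ellipticity at 222 nm using a length-corrected 40,000 maximum.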

HEp-2 cells = assay: HEp-2 cell viability (CellTiter-Glo luminescent cell viability assay); conditions: peptide alone at 50 μM; duplicates
Procedure: (B) HEp-2 cell viability upon treatment with peptides alone at peptide concentrations of 50, 25, and 12.5 μM. Error bars are standard deviations from duplicates. Data are representative of those from two independent experiments.
Cytotoxicity assays were done with the CellTiter-Glo luminescent cell viability assay (Promega). Each experiment was performed in duplicate and repeated at least twice.

rHRSV-Luc = assay: Mouse RSV infection model (rHRSV-Luc, bioluminescence, lung histology)
BALB/c mice = assay: In vivo toxicity assessment in uninfected BALB/c mice
RSV = conditions: monthly injection during the peak season, at-risk infants; cited from earlier work
From the text: Respiratory syncytial virus (RSV) is very contagious and represents the main cause of severe acute respiratory tract illness in young children worldwide. […] A recent study performed by Pneumonia Etiology Research for Child Health ...

BSRT7/5 cells = assay: Viability of BSRT7/5 cells transfected with the minigenome; conditions: 25 μM peptide
From the text: BSRT7/5 cells were transfected with plasmids pP, pN, pM2-1, pL, and pM/Luc, together with pRSV-β-Gal for transfection standardization. […] Error bars are standard deviations from duplicates. Data are representative of those from two independent experiments.
Briefly, the dicistronic RSV minigenome pM/Luc was cotransfected into BSRT7/5 cells expressing T7 RNA polymerase, together with plasmids pN, pP, pL, and pM2-1, resulting in the replication and transcription of the minigenome.

[2] = 2 dpi, one i.n. treatment 50 μl at 215 μM, 1 × 10^5 PFU rHRSV-Luc, n = 5
[3] = 4 dpi, i.n. treatment at day 0 and 2 dpi, n = 5, Mann-Whitney test

Compound	EC50 (rHRSV-mCherry) [µM]	% helicity [1] [%]	Toxicity for uninfected HEp-2 cells (cell viability) (HEp-2 cells)	further results
CC[C@H](C)[C@H](NC(=O)[C@]1(C)CCCC=CCCCCCC[C@@](C)(NC(=O)[C@H](CC(N)=O)NC(=O)[C@H](CC(N)=O)NC(=O)[C@H](C)NC(=O)[C@]2(C)CCCC=CCCC[C@@](C)(NC(=O)[C@H](Cc3ccccc3)NC(=O)[C@H](CCC(=O)O)NC(C)=O)C(=O)NCC(=O)N[C@@H](CCC(=O)O)C(=O)N2)C(=O)N[C@@H](C)C(=O)N[C@@H]([C@@H](C)O)C(=O)N[C@@H](CCC(=O)O)C(=O)N[C@@H](Cc2ccccc2)C(=O)N[C@@H](CC(C)C)C(=O)N[C@@H](CCCCN)C(=O)N1)C(=O)N[C@@H](CCCCN)C(=O)NCC(=O)N[C@@H](CCCCN)C(=O)N[C@@H](Cc1ccccc1)C(=O)N[C@@H](C)C(=O)N[C@@H](CO)C(N)=O [5c] (Ac-EF[R5]GE[S5]ANN[R8]ATEFLK[S5]IKGKFAS-NH2; staple 3-6, 10-17)	18.5 ± 10.6	79.7	no toxicity	
CC[C@H](C)[C@H](NC(=O)[C@]1(C)CCCC=CCCCCCC[C@@](C)(NC(=O)[C@H](CCC(=O)O)NC(=O)[C@H](CC(N)=O)NC(=O)[C@H](C)NC(=O)[C@]2(C)CCCC=CCCC[C@@](C)(NC(=O)[C@H](Cc3ccccc3)NC(=O)[C@H](CCC(=O)O)NC(C)=O)C(=O)NCC(=O)N[C@@H](CCC(=O)O)C(=O)N2)C(=O)N[C@@H](C)C(=O)N[C@@H]([C@@H](C)O)C(=O)N[C@@H](CCCCN)C(=O)N[C@@H](Cc2ccccc2)C(=O)N[C@@H](CC(C)C)C(=O)N[C@@H](CCC(=O)O)C(=O)N1)C(=O)N[C@@H](CCCCN)C(=O)N[C@@H](CCCCN)C(=O)N[C@@H](CCCCN)C(=O)N[C@@H](Cc1ccccc1)C(=O)N[C@@H](C)C(=O)N[C@@H](CO)C(N)=O [5a] (Ac-EF[R5]GE[S5]ANE[R8]ATKFLE[S5]IKKKFAS-NH2; staple 3-6, 10-17)	18.4 ± 9.3	>100	no toxicity	Reduction in the level of RSV replication in the noses versus untreated mice (rHRSV-Luc; [2]): 2 fold; Whole luminescence signal versus untreated infected mice (rHRSV-Luc; [2]): no significant difference; Intensity of interstitial pneumonia (lung histology) (rHRSV-Luc; 4 dpi, HES staining, versus RSV-infected PBS mice): decreased; Animals with vascular and bronchial lesions (lung histology) (rHRSV-Luc; 4 dpi, HES staining, all 5 untreated infected animals showed lesions): 2 out of 5; Amount of bioluminescence versus untreated control group (rHRSV-Luc; [3]): significant reduction; Bioluminescence in the lungs versus untreated RSV-infected mice (rHRSV-Luc; [3]): significantly reduced; Body weight of RSV-infected treated animals (rHRSV-Luc; daily monitoring, i.n. treatment at day 0 and 2 dpi, n = 5): statistically nonsignificant loss of weight; Animals with focal lesions of the pulmonary parenchyma with infiltration by neutrophils (histology) (BALB/c mice; BALB/c mice n = 5, i.n. 50 μl at 215 μM at days 0 and 2, day 4, HES staining): 3 of the 5; Macroscopic lung examination (BALB/c mice; BALB/c mice n = 5, i.n. 50 μl at 215 μM at days 0 and 2, lungs collected at day 4): no macroscopic sign of toxicity; Body weight monitoring, signs of toxicity (BALB/c mice; BALB/c mice n = 5, i.n. 50 μl at 215 μM in PBS at days 0 and 2, days 0 to 4): did not reveal any signs of toxicity
CC[C@H](C)[C@H](NC(=O)[C@]1(C)CCCC=CCCCCCC[C@@](C)(NC(=O)[C@H](CCC(=O)O)NC(=O)[C@H](CC(N)=O)NC(=O)[C@H](C)NC(=O)[C@]2(C)CCCC=CCCC[C@@](C)(NC(=O)[C@H](Cc3ccccc3)NC(=O)[C@H](CCC(=O)O)NC(C)=O)C(=O)NCC(=O)N[C@@H](CCC(=O)O)C(=O)N2)C(=O)N[C@@H](C)C(=O)N[C@@H]([C@@H](C)O)C(=O)N[C@@H](CCCCN)C(=O)N[C@@H](Cc2ccccc2)C(=O)N[C@@H](CC(C)C)C(=O)N[C@@H](C)C(=O)N1)C(=O)N[C@@H](CCCCN)C(=O)NCC(=O)N[C@@H](CCCCN)C(=O)N[C@@H](Cc1ccccc1)C(=O)N[C@@H](C)C(=O)N[C@@H](CO)C(N)=O [5b] (Ac-EF[R5]GE[S5]ANE[R8]ATKFLA[S5]IKGKFAS-NH2; staple 3-6, 10-17)	16.9 ± 5.1	>100	some toxicity	
palivizumab: monoclonal antibody administered monthly as an injectable for RSV prophylaxis				Efficacy of prophylactic treatment (RSV): approximately 50%
CC[C@H](C)[C@H](NC(=O)[C@]1(C)CCCC=CCCCCCC[C@@](C)(NC(=O)[C@H](CCC(=O)O)NC(=O)[C@H](CC(N)=O)NC(=O)[C@H](C)NC(=O)[C@]2(C)CCCC=CCCC[C@@](C)(NC(=O)[C@H](Cc3ccccc3)NC(=O)[C@H](CCC(=O)O)NC(C)=O)C(=O)NCC(=O)N[C@@H](CCCCN)C(=O)N2)C(=O)N[C@@H](C)C(=O)N[C@@H]([C@@H](C)O)C(=O)N[C@@H](CCCCN)C(=O)N[C@@H](Cc2ccccc2)C(=O)N[C@@H](CC(C)C)C(=O)N[C@@H](CCC(=O)O)C(=O)N1)C(=O)N[C@@H](CCCCN)C(=O)NCC(=O)N[C@@H](CCCCN)C(=O)N[C@@H](Cc1ccccc1)C(=O)N[C@@H](C)C(=O)N[C@@H](CO)C(N)=O [5d] (Ac-EF[R5]GK[S5]ANE[R8]ATKFLE[S5]IKGKFAS-NH2; staple 3-6, 10-17)	6 ± 4.2	75.7	some toxicity	Cell mortality of minigenome-transfected BSRT7/5 cells (BSRT7/5 cells): 40%
